Data from paper PMC5687811 (ACS chemical neuroscience, 2016).
Values joined by “and” are separate entries in the source; they are usually repeats but may differ in a detail not shown here. Identical values can stand only once. “Also recorded” adds a separate entry of the source. Like-named read-outs stand apart in the source and are kept apart here. [ ]: non-standard residue; d: D form. dPhe(4-I) = N[C@H](Cc1ccc(I)cc1)C(=O)O

Assays:
[1] = tested on: MC3R and MC4R knockout mice; settings: cited from earlier work
mMC1R = settings: read-out: EC50 at mMC1R; agonist; ref [22],[23]; cited from earlier work
mouse (m)MC3R = settings: HEK293 cells, cited from earlier work
[2] = tested on: wild type female and male littermate mice; experiment: Respiratory exchange ratio; format: in vivo, mice (mixed C57BL/6J and 129/Sv)
[3] = tested on: wild type female and male littermate mice; experiment: Locomotor activity; format: in vivo, mice (mixed C57BL/6J and 129/Sv); settings: for total ambulatory activity (cumulative beam breaks): ICV
[4] = Solubility / precipitation of SKY2-23-7; format: physicochemical
[5] = tested on: wild type female and male littermate mice; experiment: Energy expenditure after ICV administration, TSE metabolic cages; format: in vivo, mice (mixed C57BL/6J and 129/Sv)
mMC5R = settings: read-out: EC50 at mMC5R; agonist; ref [22],[23]; cited from earlier work
[6] = tested on: wild type female and male littermate mice; experiment: Cumulative food intake after ICV administration, TSE metabolic cages; format: in vivo, mice (mixed C57BL/6J and 129/Sv)
male and female mice = format: in vivo, mice (mixed C57BL/6J and 129/Sv); settings: 5 nmol ICV, conventional cages, pilot
mMC4R [7] = settings: HEK293 cells, ref [22],[23] (Doering et. al.), cited from earlier work
female and male rats = settings: ref [13]; cited from earlier work
[8] = tested on: females, ovariectomized or estradiol treated; settings: cited from earlier work; for effect of ovariectomy or estradiol treatment on food intake after ligand: ref [13],[21],[34]
[9] = ref [13],[24]; cited from earlier work
mMC4R [10] = settings: antagonist/inverse agonist, ref [40],[41], cited from earlier work
male and female rats = settings: ICV, ref [5] Maranon and coworkers in 2014, cited from earlier work

In the case of MTII, the “sex difference in food intake effect” value ([1]; MC3R and MC4R knockout mice, same genotype, ref [15],[16]) is listed as “no differences reported between male and female mice” and the food intake ([1]; MC3R and MC4R knockout mice, ref [15],[16]) is listed as “decrease food intake”.
In the case of Ac-W[dPhe(4-I)]RW-NH2 [SKY2-23-7], the EC50 (mMC1R) is given as 2 ± 0.6 µM, the “pA2 at mMC3R” value (mouse (m)MC3R; Schild analysis, antagonist, ref [22],[23] (Doering et. al.)) is given as 5.43±0.16 and the “agonist activity at mMC3R” value (mouse (m)MC3R; up to 100 µM, ref [22],[23] (Doering et. al.)) is given as “minimal agonist activity; also recorded: lacks the mMC3R partial agonism”. For the same substance, the “average RER” value ([2]; female, 2.5 nmol ICV, both dark and light cycles, p<0.01) was “significantly increased”, the RER ([2]; female, 7.5 nmol ICV) was “no effect” and the RER ([2]; male, 2.5 nmol ICV) was “minimal effect”. For the same substance, the “hourly RER” value ([2]; male, 7.5 nmol ICV, early light cycle 15–18 hrs post-administration) was “significantly increased”, the “total average RER” value ([2]; male, 7.5 nmol ICV, entire light cycle (14–26 hrs)) was “No significant effect” and the “total average RER” value ([2]; male, 7.5 nmol ICV, first dark cycle (0–14 hrs), p<0.01) was “increased”. For the same substance, the “total average RER” value ([2]; male, 7.5 nmol ICV, first two hours following injection, p<0.01) was “increased”, the “hourly RER” value ([2]; male, 7.5 nmol ICV, individual time points 2–7 and 10–14 hours) was “increased” and the hourly activity ([3]; female, 2.5 nmol ICV, 5 hours post administration) was “Increased activity”. For the same substance, the hourly activity ([3]; female, 2.5 nmol ICV, 24 hours post administration) was “significant decrease in activity”, the total activity ([3]; female, 5 nmol ICV, light cycle, p<0.05) was “significant decrease in total activity” and the total activity ([3]; female, other doses ICV, dark cycle (0–14 hrs), p=0.28) was “no other doses resulted in a significant changes in total activity”. The total activity ([3]; female, other doses ICV, light cycle (14–26 hrs), p=0.65) was “no other doses resulted in a significant changes in total activity”, the hourly activity ([3]; male, 7.5 nmol ICV, time points 8, 15, 18, and 24 hours) was “significant increases in activity” and the “total ambulatory activity (cumulative beam breaks)” value ([3]; male, dark cycle (0–14 hrs), p=0.39) was “no significant effect”. For the same substance, the “total ambulatory activity (cumulative beam breaks)” value ([3]; male, light cycle (14–26 hrs), p=0.64) was “no significant effect”, the solubility in saline ([4]; added to saline alone) was “precipitated out” and the “solubility limit on dosing” value ([4]; doses above 7.5 nmol ICV, male mice) was “higher dosing was prevented due to the solubility”. The energy expenditure ([5]; female, 2.5 nmol ICV, p<0.001, observed at 5, 6, 15, 21, and 22 hours) was “significant increase in energy expenditure”, the “total calories burned in 24 hours” value ([5]; female, 7.5 nmol ICV, p<0.05) was “significant decrease in total calories burned” and the “energy expenditure (trend)” value ([5]; male, 7.5 nmol ICV) was “trended towards decreasing energy expenditure”. The “hourly energy expenditure normalized to weight (Kcal/hr/kg)” value ([5]; male, 7.5 nmol ICV, at 4, 20, 21, 23 and 24 hours, compared to control) was “decrease in energy expenditure”, the “total calories spent in 24 hours” value ([5]; male, ICV) was “no effect” and the energy expenditure ([5]; male, doses lower than 7.5 nmol ICV) was “No significant effect”. For the same substance, the EC50 (mMC5R) was 2.8 ± 1.1 µM, the cumulative food intake ([6]; female, 2.5 nmol ICV, 6–24 hours post-administration) was “significant increase in food intake” and the “cumulative food intake, dose response” value ([6]; female, 2.5 nmol, 1 nmol, and 0.5 nmol ICV) was “A dose response pattern is observed”. For the same substance, the cumulative food intake ([6]; female, 5 nmol ICV) was “no significant effect”, the cumulative food intake ([6]; female, 7.5 nmol ICV) was “no significant effect” and the cumulative food intake ([6]; male, 2.5 nmol ICV) was “no significant effect”. For the same substance, the cumulative food intake ([6]; male, 7.5 nmol ICV, 2–24 hours post-administration) was “significant increase in food intake”, the “cumulative food intake, dose response” value ([6]; male, ICV, metabolic cages, p<0.0001) was “dose dependent increase in food intake” and the food intake (male and female mice; female, trend of increase in food intake) was “not observed”. For the same substance, the food intake (male and female mice; male) was “an increase in food intake was observed”, the “pA2 at mMC4R” value (mMC4R [7]; Schild analysis, antagonist) was 7.83 and 7.83±0.16 and the “agonist activity at mMC4R” value (mMC4R [7]; up to 100 µM) was “minimal agonist activity”.
In the case of “AGRP: endogenous MC3R antagonist and MC4R antagonist/inverse agonist AGRP (SSRRCVRLHESCLGQQVPCCDPCATCYCRFFNAFCYCRKLGTAMNPCSRT; UniProt O00253 83-132, looked up)”, the food intake ([1]; ICV, MC3R and MC4R male knockout mice, ref [8],[12]) is given as “increased food intake”, the “energy expenditure, female versus male” value (female and male rats) is given as “reduces energy expenditure in female rats more than in male rats” and the food intake (female and male rats) is given as “food intake is unaffected”. The “effect of ovariectomy on ligand-dependent energy expenditure” value ([8]; females, ref [13]) was “ovariectomy can blunt”, the “effect of ovariectomy or estradiol treatment on food intake after ligand” value [8] was “minimal effects on food intake” and the energy expenditure [9] was “decrease energy expenditure”. For the same substance, the “respiratory exchange ratio (RER)” value [9] was “increase respiratory exchange ratio”, the “pA2 at mMC4R” value (mMC4R [10]) was 9.4 and the Ki (mMC4R [10]; read-out: Ki at mMC4R) was 0.0004 to 0.0025 µM.
In the case of SHU9119, the “partial agonism at mMC3R” value (mouse (m)MC3R; at 1 µM, ref [22] (Doering et. al.)) is listed as 50%, the “effect of ovariectomy or estradiol treatment on food intake after ligand” value [8] is listed as “minimal effects on food intake” and the energy expenditure [9] is listed as “decrease energy expenditure”. For the same substance, the blood pressure (male and female rats; female rats) was “no effect on blood pressure” and the blood pressure (male and female rats; male rats) was “significantly reduced blood pressure”.
